Test results reported in publication PMC12596500, “Affinity-selected peptide ligands specifically bind i-motif DNA and modulate c-Myc gene expression” (Nucleic Acids Research, 2025).
Peptide text beside a SMILES is read from it.

Key:
c-MycC52 iM = experiment: Fluorescent indicator displacement (FID) assay with Thiazole Orange; type: binding; settings: 1 µM c-MycC52, 2 µM TO, 10 mM sodium cacodylate pH 6.6, peptides 25-200 µM, n = 3
Experimental: Fluorescent indicator displacement (FID) experiments used in this publication are based on the first FID assay developed for iM DNA [35]. The FID experiments were performed on a BMG CLARIOstar plate reader using 96-well, solid black flat-bottom plates. Thiazole Orange (TO) was the indicator, and the stock solution was prepared at 10 mM in DMSO. The TO stock was diluted into the appropriate buffer to 2 µM. Each well received 9 µl of the 2 µM TO solution, was excited at 430 nm, and fluorescence emission at 450 nm was measured; this was normalized to 0% to account for background fluorescence. One microlitre of […] DNA was added to each well and shaken in the plate reader for 30 s using double orbital shaking at 700 rpm and left for 10 min to equilibrate. Following equilibration, fluorescence emission was measured and normalized to 100% representing maximum fluorescence. Peptides were titrated starting at 25 µM, with 0.9 µl additions into each well in triplicate, until a final concentration of 200 µM was reached, and fluorescence emission was measured after each addition. Fluorescence emission for each well was normalized between 0% and 100%, which was taken away from 100 to give the percentage of displacement. The data were analyzed in Origin data analysis software and fitted with a hyperbolic dose–response curve from which the DC50 value was interpolated.
The relative binding of the five peptide ligands to the folded c-MycC52 iM was assessed via a FID assay using TO (Fig. 1). These experiments were performed in 10 mM sodium cacodylate at pH 6.6, the transitional pH of the c-Myc iM-forming sequence. As iM-formation is reduced at higher pH and higher ionic strength, additional stabilizing cations were avoided to allow the highest proportion of iM formation at the highest pH, to represent as close to physiological pH conditions as possible.
Figure 1. Concentration-dependent interaction of peptides with c-MycC52 iM determined via FID assay. The assay was performed with 1 µM c-MycC52 in 10 mM sodium cacodylate, pH 6.6, in the presence of 2 µM TO. Peptide ligands were added in increments of 25 µM up to a final concentration of 200 µM. Data are presented as mean ± SD (n = 3) and fitted using a Hill-Slope dose–response curve.

DAPg = experiment: UV titration, DAPg; type: binding; set-up: key to Kd DAPg, 100 mM KCl: Binding classified as non-specific (NS) showed no consistent or concentration-dependent pattern, under the tested conditions; key to Kd DAPg: NS = non-specific binding indicates where no significant pattern of binding was observed at the concentration range of the experiment; settings: for Kd DAPg: UV titration at 350 nm, 10 µM peptide, 10 mM sodium cacodylate pH 6.6, no KCl; for Kd DAPg, 100 mM KCl: UV titration, 10 mM sodium cacodylate 100 mM potassium chloride pH 6.6, two experiments
Experimental: UV titrations were recorded using an Agilent Cary-60 UV/VIS spectrometer with a 10 mm path length black-walled quartz cuvette. Oligonucleotides (c-MycC27, c-MycC52, c-MycG27, c-MycG52, DAPc, DAPg, and dsDNA; sequences listed in Supplementary Table S1) were annealed as 250 µM stock solutions in 10 mM sodium cacodylate buffer (pH 6.6) in the presence or absence of 100 mM KCl. Spectra were recorded at room temperature over a wavelength range of 300–500 nm with 1 nm intervals. Buffer-only spectra were recorded and subtracted from each dataset as blanks. Peptide ligands were prepared as 1 mM stock solutions in DMSO and added to the cuvette at a final concentration of 10 µM in buffer prior to DNA addition. DNA stock was diluted to 50 µM in buffer and was added stepwise to the peptide solution to reach 2.5 µM final concentration, followed by additions from the 250 µM DNA stock to reach final DNA concentrations of 30 or 50 µM. The absorbance at 350 nm was monitored and plotted against DNA concentration. Binding curves were fitted using a one-site binding model in GraphPad Prism version 10.1.2, and Kd values were determined from normalized data to represent the DNA-ligand bound fraction.
Despite the demonstrable importance of the extended five-tract C-rich sequence within the c-Myc promoter, most studies looking at ligand binding use the shorter sequences. […] Although the iM-targeting antibody is specific for iM as a structure, it also binds multiple types of iM-structures.

CC(=O)N1CCC[C@H]1C(=O)N[C@H](C(=O)N[C@@H](CC(N)=O)C(=O)N[C@H](C(=O)N[C@@H](CO)C(=O)NCC(=O)N[C@@H](CCCNC(=N)N)C(=O)N[C@@H](CC(N)=O)C(=O)N[C@@H](Cc1ccc(O)cc1)C(=O)N[C@@H](CC(C)C)C(=O)N[C@@H](Cc1ccccc1)C(=O)N[C@@H](CS)C(N)=O)C(C)C)[C@@H](C)O [Pep-PTN] (Ac-PTNVSGRNYLFC-NH2)
relative binding affinity ranking (TO displacement) (c-MycC52 iM): SLC > PTN > VSE > EIE > RVS | Kd DAPg (DAPg): NS | Kd DAPg, 100 mM KCl (DAPg): NS

CC(=O)N[C@H](C(=O)N[C@@H](CO)C(=O)N[C@@H](CCC(=O)O)C(=O)N[C@@H](C)C(=O)N[C@@H](Cc1c[nH]c2ccccc12)C(=O)N[C@@H](CCCCN)C(=O)N[C@@H](CCC(=O)O)C(=O)N[C@H](C(=O)N[C@@H](CCCCN)C(=O)NCC(=O)N[C@@H](Cc1ccccc1)C(=O)N[C@@H](Cc1ccccc1)C(N)=O)C(C)C)C(C)C [Pep-VSE] (Ac-VSEAWKEVKGFF-NH2)
relative binding affinity ranking (TO displacement) (c-MycC52 iM): SLC > PTN > VSE > EIE > RVS | Kd DAPg (DAPg): NS | Kd DAPg, 100 mM KCl (DAPg): NS
